According to the supplement of paper PMC10307832:

Columns and labels:
Experiment in all cases: relative viability (nuclei count vs DMSO), 5 days (fraction); higher = more cells survive
Selumetinib + Pictilisib = compound: Cn1cnc2c(F)c(Nc3ccc(Br)cc3Cl)c(C(=O)NOCCO)cc21 [Selumetinib] + CS(=O)(=O)N1CCN(Cc2cc3nc(-c4cccc5[nH]ncc45)nc(N4CCOCC4)c3s2)CC1 [Pictilisib] (partner 1 µM)
Summary of the method: (§1)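 Lung cancer cell lines in 1536-well plates were dosed by pin tool the day after seeding, either with one drug alone or with a fixed anchor-drug dose plus five library-drug doses (not always all listed) in √10 steps. After 5 days, cells were fixed and their nuclei stained in one step (final 0.05% Triton X-100, 1% formaldehyde, 1 ug/ml Hoechst), then counted on 4× images. Relative viability is the nuclei count in treated wells divided by that in vehicle wells. Values are medians of duplicate plates.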

Venetoclax + Palbociclib = compound: CC1(C)CCC(CN2CCN(c3ccc(C(=O)NS(=O)(=O)c4ccc(NCC5CCOCC5)c([N+](=O)[O-])c4)c(Oc4cnc5[nH]ccc5c4)c3)CC2)=C(c2ccc(Cl)cc2)C1 [Venetoclax] + CC(=O)c1c(C)c2cnc(Nc3ccc(N4CCNCC4)cn3)nc2n(C2CCCC2)c1=O [Palbociclib] (partner 0.5 µM)
Summary of the method: as §1

Selumetinib + Pemetrexed = compound: Cn1cnc2c(F)c(Nc3ccc(Br)cc3Cl)c(C(=O)NOCCO)cc21 [Selumetinib] + Nc1nc2[nH]cc(CCc3ccc(C(=O)N[C@@H](CCC(=O)O)C(=O)O)cc3)c2c(=O)[nH]1 [Pemetrexed] (partner 0.2 µM)
Summary of the method: as §1

Venetoclax + Alpelisib = compound: CC1(C)CCC(CN2CCN(c3ccc(C(=O)NS(=O)(=O)c4ccc(NCC5CCOCC5)c([N+](=O)[O-])c4)c(Oc4cnc5[nH]ccc5c4)c3)CC2)=C(c2ccc(Cl)cc2)C1 [Venetoclax] + Cc1nc(NC(=O)N2CCC[C@H]2C(N)=O)sc1-c1ccnc(C(C)(C)C(F)(F)F)c1 [Alpelisib] (partner 2 µM)
Summary of the method: as §1

| Cell Line | relative viability (Selumetinib + Pictilisib; first compound 0.02 µM) | relative viability (Selumetinib + Pictilisib; first compound 0.06325 µM) | relative viability (Selumetinib + Pictilisib; first compound 0.2 µM) | relative viability (Selumetinib + Pictilisib; first compound 0.6325 µM) | relative viability (Venetoclax + Palbociclib; first compound 0.01 µM) | relative viability (Venetoclax + Palbociclib; first compound 0.03162 µM) | relative viability (Venetoclax + Palbociclib; first compound 0.1 µM) | relative viability (Venetoclax + Palbociclib; first compound 0.3162 µM) | relative viability (Venetoclax + Palbociclib; first compound 1 µM) | relative viability (Selumetinib + Pemetrexed; first compound 0.02 µM) | relative viability (Selumetinib + Pemetrexed; first compound 0.06325 µM) | relative viability (Selumetinib + Pemetrexed; first compound 0.2 µM) | relative viability (Selumetinib + Pemetrexed; first compound 0.6325 µM) | relative viability (Venetoclax + Alpelisib; first compound 0.01 µM) | relative viability (Venetoclax + Alpelisib; first compound 0.03162 µM) | relative viability (Venetoclax + Alpelisib; first compound 0.1 µM) | relative viability (Venetoclax + Alpelisib; first compound 0.3162 µM) | relative viability (Venetoclax + Alpelisib; first compound 1 µM) |
| --- | --- | --- | --- | --- | --- | --- | --- | --- | --- | --- | --- | --- | --- | --- | --- | --- | --- | --- |
| NCI-H23 | 0.484 | 0.344 | 0.352 | 0.29 | 0.514 | 0.598 | 0.495 | 0.491 | 0.413 | 0.811 | 0.43 | 0.465 | 0.529 | 0.658 | 0.62 | 0.64 | 0.644 | 0.546 |
| NCI-H441 | 0.472 | 0.363 | 0.306 | 0.292 | 0.218 | 0.27 | 0.241 | 0.2 | 0.18 | 0.283 | 0.248 | 0.275 | 0.308 | 0.828 | 0.705 | 0.821 | 0.899 | 0.608 |
| NCI-H2009 | 0.614 | 0.355 | 0.266 | 0.221 | 0.264 | 0.228 | 0.258 | 0.216 | 0.203 | 1.03 | 0.945 | 0.792 | 0.45 | 1.1 | 1.15 | 1.16 | 1.11 | 1.07 |
| NCI-H1944 | 0.338 | 0.337 | 0.275 | 0.319 | 0.401 | 0.314 | 0.314 | 0.288 | 0.299 | 0.573 | 0.476 | 0.405 | 0.484 | 1.12 | 0.836 | 0.779 | 0.864 | 0.845 |
| NCI-H1299 | 0.673 | 0.51 | 0.389 | 0.359 | – | – | – | – | – | – | – | – | – | 1.02 | 1.03 | 1.06 | 1.04 | 1.03 |
| EPLC-272H | 0.299 | 0.253 | 0.245 | 0.208 | 0.351 | 0.298 | 0.345 | 0.338 | 0.318 | 0.317 | 0.375 | 0.326 | 0.34 | – | 0.95 | 0.986 | 1.11 | 0.977 |
| NCI-H3122 | 0.396 | 0.298 | 0.206 | 0.211 | 0.249 | 0.226 | 0.185 | 0.18 | 0.204 | 0.181 | 0.171 | 0.156 | 0.169 | 0.874 | 0.751 | 0.757 | 0.731 | 0.884 |
| NCI-H2085 | 0.449 | 0.374 | 0.356 | 0.365 | 0.441 | 0.471 | 0.486 | 0.454 | 0.47 | 0.77 | 0.789 | 0.677 | 0.627 | 0.911 | 0.925 | 0.884 | 0.928 | 0.911 |
| HCC-366 | 0.136 | 0.0735 | 0.124 | 0.115 | 0.391 | 0.359 | 0.314 | 0.37 | 0.326 | 0.224 | 0.191 | 0.234 | 0.206 | 0.5 | 0.425 | 0.448 | 0.501 | 0.317 |
